Assay results from patent publication US20080051418A1, “Arylalkanoic Acid Derivative” (priority 2004, published 2008).
Like-named read-outs stand apart in the source and are kept apart here.

Experiments:
KKA^y mice [1] = experiment: Plasma antiatherogenic index increasing action in mice; format: in vivo; conditions: Mus musculus, po, 96 h, 4 days, increase rate of (HDL cholesterol/total cholesterol)×100, non-administration group = 100%; for change in vivo at 0.005 %: 0.005% in powder diet
Method: The test compound was mixed with a powder diet (CE-2, CLEA JAPAN, INC.) at a proportion of 0.005% (0.01% for the compound of Example 105) and freely given to KKA^y mice (9 to 12-week-old, 5 mice per group) which are obesity-insulin independent diabetes mellitus (type-2 diabetes) models, for 4 days. During this period, water was freely given. The blood was drawn from fundus and the components were measured using the plasma separated from the blood. The total cholesterol was quantified using L Type Wako cholesterol (Wako Pure Chemical Industries, Ltd.). In addition, an HDL cholesterol precipitation reagent (Wako Pure Chemical Industries, Ltd.) was added to a part of the plasma to allow precipitation of a non-HDL lipoprotein, and the cholesterol (HDL cholesterol) of the supernatant was measured. The plasma antiatherogenic index [(HDL cholesterol/total cholesterol)×100] was calculated from these cholesterol values.

PPARγ-RXRα heterodimer = biological target: T1, PPARγ-RXRα heterodimer (Homo sapiens, UniProt P37231); experiment: PPARγ-RXRα heterodimer ligand activity (luciferase reporter); format: cell-based; conditions: PPARγ:RXRα:4ERPP/CHO-K1 cells, 18-24 hr, concentration showing 50% of the maximum induction rate
T1 construct: expressed in transfected cells; host or cells: CHO-K1
T1 sequence (P37231 1-505): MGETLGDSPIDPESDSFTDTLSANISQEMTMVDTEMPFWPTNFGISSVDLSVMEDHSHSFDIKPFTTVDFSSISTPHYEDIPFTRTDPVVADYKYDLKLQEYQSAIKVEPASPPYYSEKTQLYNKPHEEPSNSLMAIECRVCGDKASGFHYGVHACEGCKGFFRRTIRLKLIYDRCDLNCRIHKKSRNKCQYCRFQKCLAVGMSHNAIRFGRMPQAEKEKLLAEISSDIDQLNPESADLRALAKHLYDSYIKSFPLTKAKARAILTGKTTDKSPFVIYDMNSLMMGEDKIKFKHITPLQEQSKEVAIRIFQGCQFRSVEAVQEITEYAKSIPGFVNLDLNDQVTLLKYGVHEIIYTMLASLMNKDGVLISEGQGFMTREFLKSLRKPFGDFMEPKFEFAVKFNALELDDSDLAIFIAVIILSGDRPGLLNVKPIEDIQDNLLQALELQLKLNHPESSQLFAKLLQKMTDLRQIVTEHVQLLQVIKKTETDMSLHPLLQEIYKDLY
T1 sequence (P19793 1-462 partner): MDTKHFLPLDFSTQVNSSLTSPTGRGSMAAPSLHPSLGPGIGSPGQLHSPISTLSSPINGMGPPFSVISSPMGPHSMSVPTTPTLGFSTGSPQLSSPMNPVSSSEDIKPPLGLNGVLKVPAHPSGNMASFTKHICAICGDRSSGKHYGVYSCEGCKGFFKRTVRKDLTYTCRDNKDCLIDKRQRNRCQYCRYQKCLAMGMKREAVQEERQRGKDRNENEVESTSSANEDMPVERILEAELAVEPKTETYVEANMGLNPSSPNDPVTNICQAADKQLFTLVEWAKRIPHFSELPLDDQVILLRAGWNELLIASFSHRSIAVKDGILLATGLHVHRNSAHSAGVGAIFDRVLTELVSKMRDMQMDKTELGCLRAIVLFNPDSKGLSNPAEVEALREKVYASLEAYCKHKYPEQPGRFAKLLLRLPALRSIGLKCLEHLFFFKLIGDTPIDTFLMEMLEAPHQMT
Method in brief: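 CHO-K1 cells carrying PPARγ, RXRα and a 4ERPP luciferase reporter, exposed to compound 18–24 h at 37 °C in Ham F12 with 0.1% fatty acid-free BSA. Luciferase induction expressed relative to untreated cells (= 1). EC50 is concentration giving 50% of maximal induction.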

KKA^y mice [2] = experiment: Blood glucose and blood lipid (triglyceride) lowering action in mice; format: in vivo; conditions: Mus musculus, po, 96 h, 4 days, non-administration group = 100%; for inhibition in vivo at 0.005 %: 0.005% in powder diet; for inhibition in vivo at 0.01 %: 0.01% in powder diet (compound of Example 105)
Excerpt: The test compound was mixed with a powder diet (CE-2, CLEA JAPAN, INC.) at a proportion of 0.005% (0.01% for the compound of Example 105) and freely given to KKA^y mice (9 to 12-week-old, 5 mice per group) which are obesity-insulin independent diabetes mellitus (type-2 diabetes) models, for 4 days. During this period, water was freely given. The blood was drawn from the orbital venous plexus. Glucose and triglyceride in the plasma separated from the blood were quantitated using L Type Wako Glu2 (Wako Pure Chemical Industries, Ltd.) and L Type Wako TG•H (Wako Pure Chemical Industries, Ltd.), respectively, according to an enzyme method.

PPARδ-RXRα heterodimer = biological target: T2, PPARδ-RXRα heterodimer (Homo sapiens, UniProt Q03181); experiment: PPARδ-RXRα heterodimer ligand activity (luciferase reporter); format: cell-based; conditions: transformant of Reference Example 9a of WO03/099793, 36-48 hr, concentration showing 50% of the maximum induction rate
T2 construct: expressed in transfected cells
T2 sequence (Q03181 1-441): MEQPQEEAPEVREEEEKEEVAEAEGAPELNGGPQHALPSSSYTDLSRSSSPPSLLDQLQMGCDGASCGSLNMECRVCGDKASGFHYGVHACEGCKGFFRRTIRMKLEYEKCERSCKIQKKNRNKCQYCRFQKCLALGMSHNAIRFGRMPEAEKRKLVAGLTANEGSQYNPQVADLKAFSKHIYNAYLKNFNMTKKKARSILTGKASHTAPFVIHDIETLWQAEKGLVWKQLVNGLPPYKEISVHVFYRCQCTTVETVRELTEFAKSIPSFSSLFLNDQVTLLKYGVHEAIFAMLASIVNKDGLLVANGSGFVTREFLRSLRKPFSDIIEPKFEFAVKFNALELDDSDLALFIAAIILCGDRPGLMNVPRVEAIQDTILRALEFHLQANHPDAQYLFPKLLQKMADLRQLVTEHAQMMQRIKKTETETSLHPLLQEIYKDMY
T2 sequence (P19793 1-462 partner): T1 sequence (P19793 1-462 partner)
Method: The transformant described in Reference Example 9a of WO03/099793 was suspended in a DMEM medium [manufactured by Life technologies, Inc., US] containing 0.1% fatty acid-free bovine serum albumin (BSA) (manufactured by Wako Pure Chemical Industries, Ltd.), and inoculated to each well of a 96 well white plate [manufactured by Corning Coster Corporation, US] by 80 μl to 1×10^4 cells/well. Then, the test compound (20 μl) was added, and cultured under the conditions of 37° C., 5% CO2 for 36-48 hr. The medium was removed from the 96 well white plate, 40 μl of PicaGene LT 7.5 (manufactured by Wako Pure Chemical Industries, Ltd.) diluted 2-fold with HBSS (HANKS' BALANCED SALT SOLUTION) [manufactured by BIO WHITTAKER, US] was added and, after stirring, the luciferase activity was determined using the 1420 ARVO Multilabel Counter [manufactured by PerkinElmer, US].
The induction rate was calculated from the luciferase activity of each test compound based on the luciferase activity of the test compound non-administration group as 1. The test compound concentration and the induction rate were analyzed by PRISM [manufactured by GraphPad Software, Inc., US] to calculate EC50 value (compound concentration showing 50% of the maximum value of induction rate) of the test compound.

[3] = lowering rate of plasma glucose, read-out: hypoglycemic action (%)
[4] = lowering rate of plasma triglyceride, read-out: hypolipidemic action (%)

Structure (SMILES) | change in vivo at 0.005 % (KKA^y mice [1]) [%] | EC50 (PPARγ-RXRα heterodimer) [µM] | melting point [°C] | inhibition in vivo at 0.005 % (KKA^y mice [2]; [3]) [%] | inhibition in vivo at 0.005 % (KKA^y mice [2]; [4]) [%] | EC50 (PPARδ-RXRα heterodimer) [µM] | inhibition in vivo at 0.01 % (KKA^y mice [2]; [3]) [%] | inhibition in vivo at 0.01 % (KKA^y mice [2]; [4]) [%] | change in vivo at 0.01 % (KKA^y mice [1]; 0.01% in powder diet (compound of Example 105)) [%]
COc1cccc(CC(=O)O)c1OCCCc1cc(OC(C)C)nn1Cc1ccc(C(F)(F)F)cc1 [Example 51, [2-(3-{3-isopropoxy-1-[4-(trifluoromethyl)benzyl]-1H-pyrazol-5-yl}propoxy)-3-methoxyphenyl]acetic acid] | 15 | 0.039 | 116 to 117 | – | – | – | – | – | –
CCCOc1cc(CCCOc2c(CC(=O)O)cccc2OC)n(Cc2ccccc2)n1 [Example 56, {2-[3-(1-benzyl-3-propoxy-1H-pyrazol-5-yl)propoxy]-3-methoxyphenyl}acetic acid] | 12 | – | – | – | – | – | – | – | –
COc1ccccc1Cn1nc(OC(C)C)cc1CCCOc1c(CC(=O)O)cccc1OC [Example 62, (2-{3-[3-isopropoxy-1-(2-methoxybenzyl)-1H-pyrazol-5-yl]propoxy}-3-methoxyphenyl)acetic acid] | 13 | 0.034 | – | 48 | 61 | – | – | – | –
COCOc1ccc(CCCOc2nn(C)cc2CC(=O)O)c(Oc2ncc(C(F)(F)F)cc2Cl)c1 [Example 111, (3-{3-[2-{[3-chloro-5-(trifluoromethyl)pyridin-2-yl]oxy}-4-(methoxymethoxy)phenyl]propoxy}-1-methyl-1H-pyrazol-4-yl)acetic acid] | 11 | 0.0038 | 122 to 123 | 64 | 45 | 0.077 | – | – | –
COc1cccc(CC(=O)O)c1OCCCc1cc(OC(C)C)nn1Cc1ccc(Cl)cc1Cl [Example 16, (2-{3-[1-(2,4-dichlorobenzyl)-3-isopropoxy-1H-pyrazol-5-yl]propoxy}-3-methoxyphenyl)acetic acid] | 13 | 0.0023 | – | 57 | 28 | 0.014 | – | – | –
CCCOc1cc(CCCOc2c(CC(=O)O)cccc2OC)n(Cc2ccc(Cl)cc2Cl)n1 [Example 57, (2-{3-[1-(2,4-dichlorobenzyl)-3-propoxy-1H-pyrazol-5-yl]propoxy}-3-methoxyphenyl)acetic acid] | 15 | 0.0014 | – | – | – | 0.021 | – | – | –
COCOc1ccc(CCCOc2c(CC(=O)O)cccc2OC)c(Oc2ccc(C(F)(F)F)cn2)c1 [Example 105, {3-methoxy-2-[3-(4-(methoxymethoxy)-2-{[5-(trifluoromethyl)pyridin-2-yl]oxy}phenyl)propoxy]phenyl}acetic acid] | – | – | – | – | – | – | 64 | 64 | 13
COc1cccc(CC(=O)O)c1OCCCc1ccc(OC(C)C)cc1Oc1ccc(C(F)(F)F)cn1 [Example 107, {2-[3-(4-isopropoxy-2-{[5-(trifluoromethyl)pyridin-2-yl]oxy}phenyl)propoxy]-3-methoxyphenyl}acetic acid] | 13 | – | – | – | – | – | – | – | –
CCn1cc(CC(=O)O)c(OCCCc2cc(OC(C)C)nn2Cc2ccc(Cl)cc2Cl)n1 [Example 22, (3-{3-[1-(2,4-dichlorobenzyl)-3-isopropoxy-1H-pyrazol-5-yl]propoxy}-1-ethyl-1H-pyrazol-4-yl)acetic acid] | 12 | 0.015 | – | 49 | 53 | – | – | – | –
